This note sets out measurements from patent US20050107423A1, “Quinolone antibacterial agents” (priority 2003, published 2005).

Holding throughout (assay): Antibacterial assay, microtitration MIC (Test A)
What all share (format): cell-based

The test system of assay [1] is E. coli EC-2549. Particulars: strain EC-2549; for MIC: Escherichia coli, EC2549, Gram Negative Bacteria, read-out: Minimum Inhibitory Concentrations E. coli EC-2549; for Minimum Inhibitory Concentrations E. coli EC-2549: Gram Negative Bacteria. As for the experimental part:
(§1) The compounds of the present invention were tested against an assortment of Gram-negative and Gram-positive organisms using standard microtitration techniques (Cohen et. al., Antimicrob., 1985;28:766; Heifetz, et. al., Antimicrob., 1974;6:124). The results of the evaluation are shown in Tables 1A and B, wherein “-” means no data.

Assay [2] relates to H. influenzae HI-3542. Particulars: strain HI-3542; for MIC: Haemophilus influenzae, HI3542, Gram Negative Bacteria, read-out: Minimum Inhibitory Concentrations H. influenzae HI-3542; for Minimum Inhibitory Concentrations H. influenzae HI-3542: Gram Negative Bacteria. As for the experimental part: as §1
Assay [3] has as its system M. catarrhalis BC-3531. The conditions noted are these: strain BC-3531; for MIC: Moraxella catarrhalis, BC3531, Gram Negative Bacteria, read-out: Minimum Inhibitory Concentrations M. catarrhalis BC-3531; for Minimum Inhibitory Concentrations M. catarrhalis BC-3531: Gram Negative Bacteria. The method, then:
as §1

Converted amounts (≈) assume the structure as drawn.

Consider `O=C(O)c1cn(C2CC2)c2c(Cl)c(N3CCC(C(O)CO)C3)c(F)cc2c1=O` (stereo not drawn) [drawing 324], for which the MIC was found to be 0.06 µg/mL (≈ 0.146 µM) in assay [1], 0.004 µg/mL (≈ 0.00974 µM) in assay [2] and 0.016 µg/mL (≈ 0.0389 µM) in assay [3].
The like results for `Cc1c(N2C[C@@H](CCO)[C@@H](CCO)C2)c(F)cc2c(=O)c(C(=O)O)cn(C3CC3)c12` [drawing 395] were, in that order, 0.125 µg/mL (≈ 0.299 µM), 0.015 µg/mL (≈ 0.0358 µM) and 0.06 µg/mL (≈ 0.143 µM).
Turning to `Cc1c(N2CCC(C(O)C(F)(F)F)C2)c(F)cc2c(=O)c(C(=O)O)cn(C3CC3)c12` (stereo not drawn) [drawing 329], the figures for the MIC in assay [1], in assay [2] and in assay [3] were 0.5 µg/mL (≈ 1.17 µM), 0.06 µg/mL (≈ 0.14 µM) and 0.03 µg/mL (≈ 0.07 µM), respectively.
The like results for `COC[C@@H]1CN(c2c(F)cc3c(=O)c(C(=O)O)cn(C4CC4)c3c2C)C[C@@H]1COC` [drawing 388] were, in that order, 2 µg/mL (≈ 4.78 µM), 0.25 µg/mL (≈ 0.597 µM) and 0.125 µg/mL (≈ 0.299 µM).
The like results for `COC[C@@H]1CN(c2c(F)cc3c(=O)c(C(=O)O)cn(C4CC4)c3c2C)C[C@@H]1CO` [drawing 389] were, in that order, 0.06 µg/mL (≈ 0.148 µM), 0.008 µg/mL (≈ 0.0198 µM) and 0.015 µg/mL (≈ 0.0371 µM).
The like results for `COc1c(N2CCC(C(CO)CO)C2)c(F)cc2c(=O)c(C(=O)O)cn(C3CC3)c12` (stereo not drawn) [drawing 307] were, in that order, 0.06 µg/mL (≈ 0.143 µM), 0.008 µg/mL (≈ 0.019 µM) and 0.015 µg/mL (≈ 0.0357 µM).
Take `Cc1c(N2CC(C(O)CO)C(C)(C)C2)c(F)cc2c(=O)c(C(=O)O)cn(C3CC3)c12` (stereo not drawn) [drawing 425]: the MIC in assay [1] was determined as 0.5 µg/mL (≈ 1.19 µM); in assay [2], 0.06 µg/mL (≈ 0.143 µM); in assay [3], 0.06 µg/mL (≈ 0.143 µM).
On to `Cc1c(N2C[C@@H]3C[C@@H](O)[C@@H](O)[C@@H]3C2)c(F)cc2c(=O)c(C(=O)O)cn(C3CC3)c12` [drawing 446], for which the MIC in assay [1] was determined as 0.125 µg/mL (≈ 0.311 µM); in assay [2], 0.008 µg/mL (≈ 0.0199 µM); in assay [3], 0.03 µg/mL (≈ 0.0745 µM).
The like results for `Cc1c(N2CC3(CO)CCCC3(CO)C2)c(F)cc2c(=O)c(C(=O)O)cn(C3CC3)c12` (stereo not drawn) [drawing 452] were, in that order, 0.125 µg/mL (≈ 0.29 µM), 0.015 µg/mL (≈ 0.0348 µM) and 0.03 µg/mL (≈ 0.0697 µM).
For `Cc1c(N2CCC(C(O)C(C)(F)F)C2)c(F)cc2c(=O)c(C(=O)O)cn(C3CC3)c12` (stereo not drawn) [drawing 336], in that order: 0.125 µg/mL (≈ 0.295 µM), 0.03 µg/mL (≈ 0.0707 µM) and 0.03 µg/mL (≈ 0.0707 µM).
As to `COc1c(N2C[C@@H](CO)[C@@H](CO)C2)c(F)c(N)c2c(=O)c(C(=O)O)cn(C3CC3)c12` [drawing 381], the results for the MIC in assay [1], in assay [2] and in assay [3] were 0.25 µg/mL (≈ 0.593 µM), 0.03 µg/mL (≈ 0.0712 µM) and 0.125 µg/mL (≈ 0.297 µM), respectively.
For `Nc1nc(-n2cc(C(=O)O)c(=O)c3cc(F)c(N4CCC(C(O)CO)C4)c(Cl)c32)c(F)cc1F` (stereo not drawn) [drawing 326], in that order: 0.25 µg/mL (≈ 0.501 µM), 0.008 µg/mL (≈ 0.016 µM) and 0.125 µg/mL (≈ 0.251 µM).
The like results for `CCOC[C@@H]1CN(c2c(F)cc3c(=O)c(C(=O)O)cn(C4CC4)c3c2C)C[C@@H]1CO` [drawing 390] were, in that order, 0.125 µg/mL (≈ 0.299 µM), 0.03 µg/mL (≈ 0.0717 µM) and 0.03 µg/mL (≈ 0.0717 µM).
As for `COc1c(N2CC(CO)C3(CC3)C2)c(F)cc2c(=O)c(C(=O)O)cn(C3CC3)c12` (stereo not drawn) [drawing 420], the MIC in assay [1] worked out at 0.06 µg/mL (≈ 0.149 µM); in assay [2] it was 0.008 µg/mL (≈ 0.0199 µM); in assay [3], 0.008 µg/mL (≈ 0.0199 µM).
`COc1c(N2CCC(C(O)c3ccc(S(C)(=O)=O)o3)C2)c(F)cc2c(=O)c(C(=O)O)cn(C3CC3)c12` (stereo not drawn) [drawing 319]: the MIC in assay [1] was found to be 2 µg/mL (≈ 3.84 µM); in assay [2], 0.06 µg/mL (≈ 0.115 µM); in assay [3], 0.125 µg/mL (≈ 0.24 µM).
Take `Cc1c(N2CC(C)(CO)C(C)(CO)C2)c(F)cc2c(=O)c(C(=O)O)cn(C3CC3)c12` (stereo not drawn) [drawing 438]: the “Minimum Inhibitory Concentrations E. coli EC-2549” value in assay [1] is 2 µg/mL. The “Minimum Inhibitory Concentrations H. influenzae HI-3542” value in assay [2] worked out at 0.125 µg/mL. The “Minimum Inhibitory Concentrations M. catarrhalis BC-3531” value in assay [3] is 0.25 µg/mL.
On to `COc1c(N2C[C@]3(CO)CCC[C@]3(CO)C2)c(F)cc2c(=O)c(C(=O)O)cn(C3CC3)c12` [drawing 451], for which the MIC was found to be 2 µg/mL (≈ 4.48 µM) in assay [1], 0.125 µg/mL (≈ 0.28 µM) in assay [2] and 0.25 µg/mL (≈ 0.56 µM) in assay [3].
The like results for `Cc1c(N2CCC(C(O)(CO)C(F)(F)F)C2)c(F)cc2c(=O)c(C(=O)O)cn(C3CC3)c12` (stereo not drawn) [drawing 338] were, in that order, 0.5 µg/mL (≈ 1.09 µM), 0.06 µg/mL (≈ 0.131 µM) and 0.06 µg/mL (≈ 0.131 µM).
For `Cc1c(N2CC(C)(CO)C(C)(CO)C2)c(F)cc2c(=O)c(C(=O)O)cn(C3CC3)c12` (stereo not drawn) [drawing 437], the “Minimum Inhibitory Concentrations E. coli EC-2549” value in assay [1] worked out at 0.5 µg/mL. For the same compound, the “Minimum Inhibitory Concentrations H. influenzae HI-3542” value in assay [2] turned out to be 0.06 µg/mL. In assay [3], the “Minimum Inhibitory Concentrations M. catarrhalis BC-3531” value is 0.06 µg/mL.
